Results as given in PMC11801377, “A uniquely efficacious type of CFTR corrector with complementary mode of action” (Science Advances, 2024).

What was measured:
CFTR = test system: CFTR; parameters: method as in earlier work; conditions: ref [27] (GLPG-2737); ref [21], [26], [27] (ELX); cited from earlier work
F508del-CFTR = F508del-CFTR (Homo sapiens, UniProt P13569, DEL508-508); test: Halide-sensitive YFP quenching assay in U2OS-F508del-CFTR-YFP cells; type: cell-based; parameters: host or cells: U2OS (PathHunter U2OS-F508del-CFTR MEM-EA); conditions: overnight treatment; acute forskolin and IVA 2 nM
Protocol: U2OS-F508del-CFTR cells expressing Topaz-YFP F46L/H148Q/I152L were seeded at 20,000 cells per well into 384-well black clear-bottom plates in 40 μl per well growth medium (Mc COY’s 5A, Gibco, 10% FBS, penicillin/streptomycin), containing the various CFTR correctors at the indicated concentrations. The cells were coincubated with the compounds for 24 hours (37°C, 5% CO2). The next day, plates were washed twice with PBS^+ (55 μl per well; PBS containing 0.9 mM Ca^2+ and 0.5 mM Mg^2+). PBS^+ was fully removed, and cells were supplemented with 15 μl PBS^+. Then, 5 μl of 4× concentrated stocks of IVA or vehicle in dilution buffer [PBS^+, 0.1 μM forskolin, and 0.2% bovine serum albumin (fatty acid free) (pH 7.4)] were added and incubated for 30 min in the dark. For experiments with I-172 (Sigma- Aldrich), the inhibitor was added to the mix with either IVA or vehicle to reach a final concentration in cells of 20 μM. Then, plates were transferred to the FLIPR Tetra (fluorescence imaging plate reader; Molecular Devices: excitation: 470 to 495 nm; emission: 526 to 585 nm), baseline fluorescence reading of the YFP signal was performed for 6 s (10 × 0.6 s intervals) after which 25 μl of iodide buffer [137 mM NaI, 2.7 mM KCl, 1.5 mM KH2PO4, 8.1 mM Na2HPO4, 1 mM CaCl2, and 0.5 mM MgCl2 (pH 7.4)] was added, and fluorescence reading was continued for 70 s (50 × 0.6 s intervals; 20 x 2 s intervals) to assess YFP quenching through CFTR-mediated iodide influx. For analysis, fluorescence traces were aligned and normalized at the last time point before iodide addition (normalized fluorescence = 1). Normalized fluorescence values obtained 20 s after the beginning of the assay were used to assess the degree of YFP quenching, i.e., CFTR function (see fig. S1J). […] Then, plates were read and analyzed as above. […] Then, plates were transferred to the FLIPR Tetra and read and analyzed as above.

Sequence of F508del-CFTR (P13569 with tags, fused parts or gaps DEL508-508): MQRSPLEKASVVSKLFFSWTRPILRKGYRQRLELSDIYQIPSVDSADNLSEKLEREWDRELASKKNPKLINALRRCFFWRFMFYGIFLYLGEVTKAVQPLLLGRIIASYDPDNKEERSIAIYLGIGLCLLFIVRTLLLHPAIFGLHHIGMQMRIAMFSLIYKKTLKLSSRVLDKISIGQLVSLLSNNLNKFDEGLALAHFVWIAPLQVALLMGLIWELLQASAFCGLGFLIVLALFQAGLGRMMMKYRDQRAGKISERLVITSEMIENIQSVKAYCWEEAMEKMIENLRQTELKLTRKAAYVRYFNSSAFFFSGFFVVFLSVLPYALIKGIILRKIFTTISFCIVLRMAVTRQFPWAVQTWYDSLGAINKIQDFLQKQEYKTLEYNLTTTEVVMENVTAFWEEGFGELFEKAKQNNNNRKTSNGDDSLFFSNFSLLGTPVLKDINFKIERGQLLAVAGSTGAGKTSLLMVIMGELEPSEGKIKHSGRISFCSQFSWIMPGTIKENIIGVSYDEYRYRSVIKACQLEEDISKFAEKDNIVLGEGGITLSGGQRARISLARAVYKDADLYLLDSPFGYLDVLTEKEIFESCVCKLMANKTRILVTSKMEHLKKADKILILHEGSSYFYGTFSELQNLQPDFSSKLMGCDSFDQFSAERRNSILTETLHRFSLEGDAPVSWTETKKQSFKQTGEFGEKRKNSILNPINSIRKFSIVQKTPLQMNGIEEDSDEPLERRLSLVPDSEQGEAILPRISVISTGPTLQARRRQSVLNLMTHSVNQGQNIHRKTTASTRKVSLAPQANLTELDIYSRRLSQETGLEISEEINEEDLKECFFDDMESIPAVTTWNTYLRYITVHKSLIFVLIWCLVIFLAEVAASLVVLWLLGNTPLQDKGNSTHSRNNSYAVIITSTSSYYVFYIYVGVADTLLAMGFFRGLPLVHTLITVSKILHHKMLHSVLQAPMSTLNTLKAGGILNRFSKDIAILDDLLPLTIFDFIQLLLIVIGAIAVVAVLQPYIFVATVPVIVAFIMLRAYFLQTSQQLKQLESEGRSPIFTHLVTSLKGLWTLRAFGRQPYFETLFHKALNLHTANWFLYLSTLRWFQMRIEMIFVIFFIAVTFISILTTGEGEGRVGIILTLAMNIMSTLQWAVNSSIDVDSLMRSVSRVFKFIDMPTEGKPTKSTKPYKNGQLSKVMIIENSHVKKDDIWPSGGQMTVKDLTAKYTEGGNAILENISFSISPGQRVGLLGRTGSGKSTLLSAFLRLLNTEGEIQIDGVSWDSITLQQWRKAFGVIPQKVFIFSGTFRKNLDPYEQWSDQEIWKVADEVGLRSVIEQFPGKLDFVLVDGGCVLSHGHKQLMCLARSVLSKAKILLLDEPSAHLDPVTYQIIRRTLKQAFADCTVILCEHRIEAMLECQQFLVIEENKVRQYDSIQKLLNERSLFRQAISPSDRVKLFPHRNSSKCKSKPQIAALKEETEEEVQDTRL

| F508del-CFTR function (YFP quenching) (F508del-CFTR) | Structure (SMILES) | acute effect on CFTR currents (CFTR) |
| --- | --- | --- |
| – | Cc1nn(C)cc1S(=O)(=O)NC(=O)c1ccc(-n2ccc(OCC(C)(C)C(F)(F)F)n2)nc1N1C[C@@H](C)CC1(C)C [ELX, elexacaftor] | copotentiating effects |
| strongly increased F508del-CFTR function | COc1cc(CCNC(=O)C2CC(=O)N(C)C(CC(C)C)C(=O)N3CCCCC3C(=O)NC(Cc3ccccc3)COc3ccc4ncc(F)cc4c3C(=O)N2)on1 (centres unmarked) [IDOR-3] | – |
